# Laboratory results from PubChem BioAssay (NCI).
# Values joined by “and” are separate entries in the source; they are usually repeats but may differ in a detail not shown here. Equal values may be shown once.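 Exposure lasted 48 hours, with cells grown in 96-well plates and compounds tested at five concentrations. GI50: concentration for 50% inhibition of growth. TGI: concentration producing complete growth inhibition.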
# Legend:
# Assay in all cases: NCI tumour cell line growth inhibition, 48 h
# OVCAR-3 ovarian = test system: OVCAR-3 ovarian
# HOP-18 NSCLC = test system: HOP-18 NSCLC
# T-47D breast = test system: T-47D breast
# MDA-N = test system: MDA-N
# SN12C renal = test system: SN12C renal
# NCI-H226 lung = test system: NCI-H226 lung
# HOP-92 NSCLC = test system: HOP-92 NSCLC
# SK-MEL-5 melanoma = test system: SK-MEL-5 melanoma
# U251 CNS = test system: U251 CNS
# MOLT-4 leukemia = test system: MOLT-4 leukemia
# HT29 colon = test system: HT29 colon
# PC-3 prostate = test system: PC-3 prostate
# HL-60(TB) leukemia = test system: HL-60(TB) leukemia
# HCT-116 colon = test system: HCT-116 colon
# OVCAR-8 ovarian = test system: OVCAR-8 ovarian
# MDA-MB-435 = test system: MDA-MB-435
# BT-549 breast = test system: BT-549 breast
# NCI-H460 lung = test system: NCI-H460 lung
# NCI-H522 lung = test system: NCI-H522 lung
# SF-539 CNS = test system: SF-539 CNS
# KM20L2 colon = test system: KM20L2 colon
# K-562 leukemia = test system: K-562 leukemia
# OVCAR-5 ovarian = test system: OVCAR-5 ovarian
# KM12 colon = test system: KM12 colon
# SF-268 CNS = test system: SF-268 CNS
# M14 melanoma = test system: M14 melanoma
# 786-0 renal = test system: 786-0 renal
# SNB-19 CNS = test system: SNB-19 CNS
# A498 renal = test system: A498 renal
# UACC-62 melanoma = test system: UACC-62 melanoma
# ACHN renal = test system: ACHN renal
# CAKI-1 renal = test system: CAKI-1 renal
# EKVX NSCLC = test system: EKVX NSCLC
# RPMI-8226 leukemia = test system: RPMI-8226 leukemia
# LOX IMVI melanoma = test system: LOX IMVI melanoma
# HS 578T breast = test system: HS 578T breast
# SW-620 colon = test system: SW-620 colon
# SNB-78 CNS = test system: SNB-78 CNS
# MALME-3M melanoma = test system: MALME-3M melanoma
# A549 NSCLC = test system: A549 NSCLC
# DLD-1 colon = test system: DLD-1 colon
# SN12K1 renal = test system: SN12K1 renal
# M19-MEL melanoma = test system: M19-MEL melanoma
# SR leukemia = test system: SR leukemia
# NCI-H23 lung = test system: NCI-H23 lung
# HCC-2998 colon = test system: HCC-2998 colon
# SK-MEL-2 melanoma = test system: SK-MEL-2 melanoma
# MCF7 breast = test system: MCF7 breast
# UO-31 renal = test system: UO-31 renal
# DMS 273 small cell lung = test system: DMS 273 small cell lung
# SK-MEL-28 melanoma = test system: SK-MEL-28 melanoma
# DU-145 prostate = test system: DU-145 prostate
# DMS 114 small cell lung = test system: DMS 114 small cell lung
# UACC-257 melanoma = test system: UACC-257 melanoma
# NCI/ADR-RES ovarian = test system: NCI/ADR-RES ovarian
# SF-295 CNS = test system: SF-295 CNS
# HOP-62 NSCLC = test system: HOP-62 NSCLC
# COLO 205 colon = test system: COLO 205 colon
# IGROV1 ovarian = test system: IGROV1 ovarian
# TK-10 renal = test system: TK-10 renal
# CCRF-CEM leukemia = test system: CCRF-CEM leukemia
# RXF 393 renal = test system: RXF 393 renal
# HCT-15 colon = test system: HCT-15 colon
# OVCAR-4 ovarian = test system: OVCAR-4 ovarian
# SK-OV-3 ovarian = test system: SK-OV-3 ovarian
# SNB-75 CNS = test system: SNB-75 CNS
# MDA-MB-231 breast = test system: MDA-MB-231 breast
# P388/ADR leukemia = test system: P388/ADR leukemia
# P388 leukemia = test system: P388 leukemia
smiles,measurement,setting,value
CN(C)CCNC(=O)c1cccc2ccc(-c3ccc(O)cc3)nc12,TGI,OVCAR-3 ovarian,15.2 µM and 15.9 µM
same,GI50,HOP-18 NSCLC,2.44 µM
same,TGI,HOP-18 NSCLC,7.14 µM and 8.35 µM
same,TGI,T-47D breast,6.98 µM
same,TGI,MDA-N,8.3 µM
same,TGI,SN12C renal,13.2 µM
same,GI50,NCI-H226 lung,0.94 µM
same,TGI,NCI-H226 lung,6.33 µM and 3.6 µM
same,TGI,HOP-92 NSCLC,11.3 µM and 11.6 µM
same,TGI,SK-MEL-5 melanoma,2.96 µM
same,TGI,U251 CNS,10.4 µM
same,TGI,MOLT-4 leukemia,0.692 µM
same,TGI,HT29 colon,14.5 µM and 17.2 µM
same,TGI,PC-3 prostate,8.86 µM
same,TGI,HL-60(TB) leukemia,3.36 µM
same,GI50,HCT-116 colon,0.879 µM
same,TGI,HCT-116 colon,2.78 µM and 10.7 µM
same,TGI,OVCAR-8 ovarian,4.13 µM
same,TGI,MDA-MB-435,15.5 µM
same,TGI,BT-549 breast,19.5 µM
same,GI50,NCI-H460 lung,0.637 µM
same,TGI,NCI-H460 lung,2.85 µM and 2.99 µM
same,GI50,NCI-H522 lung,2.26 µM
same,TGI,NCI-H522 lung,4.62 µM and 9.18 µM
same,TGI,SF-539 CNS,15.1 µM and 13.9 µM
same,TGI,KM20L2 colon,21.7 µM
same,TGI,K-562 leukemia,3.96 µM
same,TGI,OVCAR-5 ovarian,9.11 µM
same,GI50,KM12 colon,3.03 µM
same,TGI,KM12 colon,16.8 µM and 14.9 µM
same,TGI,SF-268 CNS,17.3 µM and 19.3 µM
same,TGI,M14 melanoma,2.75 µM
same,TGI,786-0 renal,14.4 µM
same,GI50,SNB-19 CNS,2.41 µM
same,TGI,SNB-19 CNS,15.4 µM and 12 µM
same,TGI,A498 renal,12.1 µM
same,GI50,UACC-62 melanoma,1.6 µM
same,TGI,UACC-62 melanoma,3.16 µM and 3.83 µM
same,TGI,ACHN renal,4.98 µM
same,TGI,CAKI-1 renal,6.53 µM and 11.3 µM
same,TGI,EKVX NSCLC,26.3 µM
same,TGI,RPMI-8226 leukemia,8.56 µM
same,TGI,LOX IMVI melanoma,3.43 µM
same,TGI,HS 578T breast,13.4 µM
same,TGI,SW-620 colon,11.1 µM
same,TGI,SNB-78 CNS,20.3 µM
same,GI50,MALME-3M melanoma,0.863 µM
same,TGI,MALME-3M melanoma,6.08 µM and 2.9 µM
same,TGI,A549 NSCLC,7.17 µM
same,GI50,DLD-1 colon,2.07 µM
same,TGI,DLD-1 colon,28 µM and 13.4 µM
same,GI50,SN12K1 renal,0.383 µM
same,TGI,SN12K1 renal,3.21 µM and 2.35 µM
same,GI50,M19-MEL melanoma,2.12 µM
same,TGI,M19-MEL melanoma,7.04 µM and 6.83 µM
same,TGI,SR leukemia,15.7 µM
same,TGI,NCI-H23 lung,10.1 µM and 12.4 µM
same,GI50,HCC-2998 colon,1.87 µM
same,TGI,HCC-2998 colon,17.5 µM and 14.1 µM
same,TGI,SK-MEL-2 melanoma,15.9 µM and 9.73 µM
same,TGI,MCF7 breast,5.2 µM
same,GI50,UO-31 renal,1.58 µM
same,TGI,UO-31 renal,7.35 µM and 5.12 µM
same,TGI,DMS 273 small cell lung,6.07 µM
same,GI50,SK-MEL-28 melanoma,4.14 µM
same,TGI,SK-MEL-28 melanoma,11.8 µM and 16.2 µM
same,TGI,DU-145 prostate,10.6 µM
same,TGI,DMS 114 small cell lung,10.8 µM and 7.31 µM
same,GI50,UACC-257 melanoma,1.06 µM
same,TGI,UACC-257 melanoma,8.29 µM and 10.1 µM
same,GI50,NCI/ADR-RES ovarian,6.8 µM
same,TGI,NCI/ADR-RES ovarian,23.7 µM and 26.3 µM
same,GI50,SF-295 CNS,2.82 µM
same,TGI,SF-295 CNS,10.8 µM
same,GI50,HOP-62 NSCLC,1.11 µM
same,TGI,HOP-62 NSCLC,7.2 µM and 4.47 µM
same,GI50,COLO 205 colon,2.31 µM
same,TGI,COLO 205 colon,14.6 µM and 14.4 µM
same,GI50,IGROV1 ovarian,2.06 µM
same,TGI,IGROV1 ovarian,15.7 µM and 11.8 µM
same,TGI,TK-10 renal,9.57 µM
same,TGI,CCRF-CEM leukemia,7.25 µM
same,GI50,RXF 393 renal,5.65 µM
same,TGI,RXF 393 renal,17.4 µM and 19.8 µM
same,TGI,HCT-15 colon,14.4 µM
same,TGI,OVCAR-4 ovarian,10.4 µM and 12.2 µM
same,TGI,SK-OV-3 ovarian,15.7 µM and 9.75 µM
same,TGI,SNB-75 CNS,11.7 µM
same,TGI,MDA-MB-231 breast,11.6 µM
CCCC(=O)OCC1OC(n2ccc(N)nc2=O)C(OC(=O)CCC)C1OC(=O)CCC (stereo not given),TGI,OVCAR-3 ovarian,> 100 µM
same,TGI,HOP-18 NSCLC,> 100 µM
same,TGI,SN12C renal,> 100 µM
same,TGI,NCI-H226 lung,> 100 µM
same,TGI,HOP-92 NSCLC,> 100 µM
same,TGI,SK-MEL-5 melanoma,> 100 µM
same,TGI,U251 CNS,> 100 µM
same,TGI,MOLT-4 leukemia,66.9 µM
same,TGI,HT29 colon,> 100 µM
same,TGI,HL-60(TB) leukemia,25.1 µM
same,TGI,HCT-116 colon,> 100 µM
same,TGI,OVCAR-8 ovarian,> 100 µM
same,TGI,NCI-H460 lung,> 100 µM
same,TGI,NCI-H522 lung,> 100 µM
same,TGI,SF-539 CNS,> 100 µM
same,TGI,KM20L2 colon,> 100 µM
same,TGI,K-562 leukemia,> 100 µM
same,TGI,OVCAR-5 ovarian,> 100 µM
same,TGI,KM12 colon,> 100 µM
same,TGI,SF-268 CNS,> 100 µM
same,TGI,SNB-19 CNS,> 100 µM
same,TGI,A498 renal,> 100 µM
same,TGI,UACC-62 melanoma,> 100 µM
same,TGI,CAKI-1 renal,> 100 µM
same,TGI,EKVX NSCLC,16.8 µM
same,TGI,RPMI-8226 leukemia,> 100 µM
same,TGI,LOX IMVI melanoma,> 100 µM
same,TGI,SW-620 colon,> 100 µM
same,TGI,SNB-78 CNS,> 100 µM
same,TGI,MALME-3M melanoma,> 100 µM
same,TGI,A549 NSCLC,> 100 µM
same,TGI,DLD-1 colon,> 100 µM
same,TGI,SN12K1 renal,> 100 µM
same,TGI,M19-MEL melanoma,> 100 µM
same,TGI,NCI-H23 lung,> 100 µM
same,TGI,HCC-2998 colon,> 100 µM
same,TGI,P388/ADR leukemia,> 100 µM
same,TGI,SK-MEL-2 melanoma,> 100 µM
same,TGI,MCF7 breast,> 100 µM
same,TGI,UO-31 renal,> 100 µM
same,TGI,DMS 273 small cell lung,> 100 µM
same,TGI,SK-MEL-28 melanoma,> 95.2 µM
same,TGI,DMS 114 small cell lung,> 100 µM
same,TGI,UACC-257 melanoma,> 100 µM
same,TGI,NCI/ADR-RES ovarian,> 100 µM
same,TGI,SF-295 CNS,> 100 µM
same,TGI,HOP-62 NSCLC,8.55 µM
same,TGI,COLO 205 colon,> 100 µM
same,TGI,IGROV1 ovarian,> 100 µM
same,TGI,CCRF-CEM leukemia,> 100 µM
same,TGI,RXF 393 renal,> 100 µM
same,TGI,HCT-15 colon,> 100 µM
same,TGI,OVCAR-4 ovarian,> 100 µM
same,TGI,SK-OV-3 ovarian,> 100 µM
same,TGI,SNB-75 CNS,> 100 µM
same,TGI,P388 leukemia,13.9 µM
